Experimental data as given in patent US12173018B2, “Penicillin-binding protein inhibitors” (priority 2018, dated 2024).
Values after ≈ are worked out from the molar mass of the structure shown. Like-named read-outs stand apart in the source and are kept apart here.

Key:
[1] = system: engineered strain of Escherichia coli harboring CTX-M15; experiment: microbe, parasite or virus in culture; format: cell-based; conditions: for MIC: Escherichia coli, read-out: Microbiological Activity (MIC in mg/L), E. coli DH5α/pLBII-CTX-M15, engineered strain producing CTX-M15
Experimental: (§1) Briefly, cryo-preserved bacterial cultures of challenge strains are streaked for isolation on appropriate agar medium, in this case Mueller Hinton II agar. Following incubation to allow growth of the colonies, plates are sealed with parafilm and stored refrigerated for up to two weeks. For preparation of assay inoculum and to ensure low variability, at least 5 colonies are picked from the agar plates with an inoculating loop and aseptically transferred to a culture tube containing 3 mL of Mueller-Hinton Broth (supplemented with divalent cations to required levels based on Manufacturers' certification). The broth culture is grown for 3-5 hours at 37° C. with shaking at 200 rpm. Meanwhile, 2-fold serial dilutions of test compounds are conducted in a 96 well plate with a final volume of 75 μL per well at 2-fold the final desired concentration. After the dilution plates are set up the growing cultures are then diluted in a cuvette containing MH II broth and the optical density is measured at 600 nm. The Inoculum is diluted such that 75 μL of this culture in Mueller-Hinton Broth results in a starting bacterial concentration of 5×10^5 CFU/mL when added to the dilution plates. The plates are incubated for 16-20 hours at 37° C. The MIC values are read visually as the lowest concentration well with no bacterial growth.
To determine if test compounds were affected by CTX-M15, the most abundant extended spectrum […] in clinical settings worldwide, the inhibition of the growth of an engineered strain of Escherichia coli harboring CTX-M15 was tested. This strain was constructed by cloning the gene encoding CTX-M15 into the NdeI and BamHI restriction endonuclease sites of plasmid pLBII, placing the gene(s) under the control of the Lac promoter. The constructed expression plasmid for CTX-M15 was used to transform competent E. coli DH5α cells to make the engineered strain, including an empty pLBII vector control strain. The classic cell based broth microdilution MIC assay was employed as described above with the addition of control antibiotics, known to be degraded by β-lactamases (Ceftazidime, piperacillin and piperacillin+tazobactam).

E. coli ATCC 25922 = experiment: Broth microdilution MIC, E. coli ATCC 25922; format: cell-based; conditions: Escherichia coli
Experimental: (§2) To determine the ability of test compounds to potentiate the inhibition of the growth of bacterial strains, classic cell based broth microdilution minimum inhibitory concentration (MIC) assays were employed. MIC assays are performed according to CLSI methods except where otherwise noted (CLSI, 2011 and CLSI, 2009). The reference type strain E. coli ATCC 25922, the wild-type parent strain E. coli AG100, the hyper-permeable E. coli 901C and E. coli D22 and the E. coli AG100A strain lacking the acrAB efflux pump encoding genes were used to determine the ability of the PBP inhibitors to penetrate the outer membrane of gram-negative bacteria and inhibit bacterial growth. […] The P. aeruginosa PAO1, P. aeruginosa ATCC 27853 and A. baumannii ATCC 19606, along with the hyper-permeable P. aeruginosa ATCC 35151 and an engineered efflux pump-compromised strain of P. aeruginosa (ΔmexAB-oprM) were used to determine the ability of PBP inhibitors to penetrate the outer membrane of P. aeruginosa and A. baumannii and assess antibacterial activity against these important gram-negative organisms.
as §1

E. coli AG100 = experiment: Broth microdilution MIC, E. coli AG100 (wild-type parent); format: cell-based; conditions: Escherichia coli; wild-type parent E. coli AG100, broth microdilution; read-out: MIC E. coli AG100
Experimental: To determine the ability of test compounds to potentiate the inhibition of the growth of bacterial strains, classic cell based broth microdilution minimum inhibitory concentration (MIC) assays were employed.
as §1

E. coli 901C = experiment: microbe, parasite or virus in culture; format: cell-based; conditions: Escherichia coli; hyper-permeable E. coli 901C, broth microdilution; read-out: MIC E. coli 901C
Experimental: as §2, §1

E. coli AG100A = experiment: microbe, parasite or virus in culture; format: cell-based; conditions: Escherichia coli, read-out: MIC E. coli AG100A
Experimental: as §2, §1

K. pneumoniae SI-117 = experiment: microbe, parasite or virus in culture; format: cell-based; conditions: Klebsiella pneumoniae, SI117, read-out: MIC K. pneumoniae SI-117
Experimental: as §2, §1

K. pneumoniae UMM = experiment: microbe, parasite or virus in culture; format: cell-based; conditions: Klebsiella pneumoniae; K. pneumoniae UMM producing SHV-5 and KPC-2; read-out: MIC K. pneumoniae UMM
Experimental: as §2, §1

E. coli D22 = experiment: microbe, parasite or virus in culture; format: cell-based; conditions: Escherichia coli; hyper-permeable E. coli D22, broth microdilution; read-out: MIC E. coli D22
Experimental: as §2, §1

E. coli PBP3 = E. coli PBP3 (Escherichia coli (strain K12), UniProt P0AD68); experiment: E. coli PBP3 Bocillin-FL fluorescence polarization competition binding assay
Summary of the method: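 Purified PBP (1.5 μM final) was combined with test compound (0–1000 μM) and Bocillin-FL (fluorescent penicillin V, 0.1 μM final) in 50 mM Hepes pH 8.0, 300 mM NaCl, 5% glycerol.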

K. pneumoniae 848844 = experiment: microbe, parasite or virus in culture; format: cell-based, Klebsiella pneumoniae; conditions: Klebsiella pneumoniae; K. pneumoniae 848844 producing SHV-11 and KPC-2; read-out: MIC K. pneumoniae 848844
Experimental: as §2, §1

[2] = ATCC25922, E. coli ATCC 25922, broth microdilution, read-out: MIC E. coli 25922
[3] = fluorescence polarization competition binding with Bocillin-FL, read-out: E. coli K12 PBP3 Potency

E. coli PBP3, sequence (P0AD68 whole entry): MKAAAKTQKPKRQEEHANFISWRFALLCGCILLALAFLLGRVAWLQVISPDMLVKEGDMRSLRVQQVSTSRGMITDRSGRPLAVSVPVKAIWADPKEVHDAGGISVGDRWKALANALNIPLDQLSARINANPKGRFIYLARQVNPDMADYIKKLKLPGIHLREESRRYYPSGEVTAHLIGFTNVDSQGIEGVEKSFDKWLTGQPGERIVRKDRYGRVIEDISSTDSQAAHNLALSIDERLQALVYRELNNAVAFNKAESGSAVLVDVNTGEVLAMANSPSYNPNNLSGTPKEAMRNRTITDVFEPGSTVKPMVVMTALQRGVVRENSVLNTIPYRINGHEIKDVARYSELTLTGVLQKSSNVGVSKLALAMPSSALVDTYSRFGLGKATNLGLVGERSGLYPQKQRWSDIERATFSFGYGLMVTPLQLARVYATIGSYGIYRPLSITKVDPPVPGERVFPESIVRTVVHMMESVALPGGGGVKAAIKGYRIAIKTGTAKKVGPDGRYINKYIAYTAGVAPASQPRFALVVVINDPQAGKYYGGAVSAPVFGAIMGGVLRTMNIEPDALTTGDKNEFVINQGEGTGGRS

| SMILES | MIC [1] [mg/L] | MIC (E. coli ATCC 25922; [2]) [µg/mL] | MIC (E. coli AG100) [µg/mL] | MIC (E. coli 901C) [µg/mL] | MIC (E. coli AG100A) [µg/mL] | MIC (K. pneumoniae SI-117) [µg/mL] | MIC (K. pneumoniae UMM) [µg/mL] | MIC (E. coli D22) [µg/mL] | EC50 (E. coli PBP3; [3]) [µM] | MIC (K. pneumoniae 848844) [µg/mL] | EC50 (E. coli PBP3) [µM] | MIC (E. coli ATCC 25922; ATCC25922, read-out: MIC E. coli 25922) [µg/mL] | MIC in CTX-M15 producer compared with parent strain with empty pLBII plasmid ([1]; engineered E. coli DH5α with CTX-M15 vs empty vector control) | Microbiological Activity (MIC in mg/L), E. coli DH5α/pLBII-CTX-M15 ([1]; engineered strain producing CTX-M15) |
| --- | --- | --- | --- | --- | --- | --- | --- | --- | --- | --- | --- | --- | --- | --- |
| O=C(O)c1cccc2c1OB(O)[C@@H](NC(=O)C(NC(=O)c1c[nH]c3cccnc3c1=O)c1ccc(O)c(O)c1Cl)C2 (stereo partly drawn) [Example 59, (3R)-3-(2-(2-chloro-3,4-dihydroxyphenyl)-2-(4-oxo-1,4-dihydro-1,5-naphthyridine-3-carboxamido)acetamido)-2-hydroxy-3,4-dihydro-2H-benzo[e][1,2]oxaborinine-8-carboxylic acid] | 128 to 256 (≈ 221 to 442 µM) | – | – | – | – | – | – | – | – | – | – | – | – | – |
| CCN1CCN(C(=O)NC(C(=O)N[C@H]2Cc3cccc(C(=O)O)c3OB2O)c2ccc(N3CCOCC3)cc2)C(=O)C1=O (stereo partly drawn) [Example 61, (3R)-3-(2-(4-ethyl-2,3-dioxopiperazine-1-carboxamido)-2-(4-morpholinophenyl)acetamido)-2-hydroxy-3,4-dihydro-2H-benzo[e][1,2]oxaborinine-8-carboxylic acid] | 128 to 256 (≈ 216 to 431 µM) | – | – | – | – | – | – | – | – | – | – | – | – | – |
| CCN1CCN(C(=O)N[C@@H](C(=O)N[C@H]2Cc3cccc(C(=O)O)c3OB2O)C2(CO)CC2)C(=O)C1=O [Example 62, (R)-3-((R)-2-(4-ethyl-2,3-dioxopiperazine-1-carboxamido)-2-(1-(hydroxymethyl)cyclopropyl)acetamido)-2-hydroxy-3,4-dihydro-2H-benzo[e][1,2]oxaborinine-8-carboxylic acid] | 32 to 64 (≈ 63.7 to 127 µM) | – | – | – | – | – | – | – | – | – | – | – | – | – |
| CCN1CCN(C(=O)NC(C(=O)N[C@H]2Cc3cccc(C(=O)O)c3OB2O)C(CO)CNS(N)(=O)=O)C(=O)C1=O (stereo partly drawn) [Example 79, (3R)-3-(2-(4-ethyl-2,3-dioxopiperazine-1-carboxamido)-4-hydroxy-3-((sulfamoylamino)methyl)butanamido)-2-hydroxy-3,4-dihydro-2H-benzo[e][1,2]oxaborinine-8-carboxylic acid] | 32 to 64 (≈ 54.8 to 110 µM) | – | – | – | – | – | – | – | – | – | – | – | – | – |
| CCN1CCN(C(=O)NC(C(=O)N[C@H]2Cc3cccc(C(=O)O)c3OB2O)C(CCl)CNS(N)(=O)=O)C(=O)C1=O (stereo partly drawn) [Example 80, (3R)-3-(4-chloro-2-(4-ethyl-2,3-dioxopiperazine-1-carboxamido)-3-((sulfamoylamino)methyl)butanamido)-2-hydroxy-3,4-dihydro-2H-benzo[e][1,2]oxaborinine-8-carboxylic acid] | 128 to 256 (≈ 212 to 425 µM) | – | – | – | – | – | – | – | – | – | – | – | – | – |
| CCN1CCN(C(=O)NC(C(=O)N[C@H]2Cc3cc(F)c(F)c(C(=O)O)c3OB2O)c2ccc(O)c(O)c2Cl)C(=O)C1=O (stereo partly drawn) [Example 180, (3R)-3-(2-(2-chloro-3,4-dihydroxyphenyl)-2-(4-ethyl-2,3-dioxopiperazine-1-carboxamido)acetamido)-6,7-difluoro-2-hydroxy-3,4-dihydro-2H-benzo[e][1,2]oxaborinine-8-carboxylic acid] | – | 8 to 16 | 2 to 4 | 0.5 to 1 | 0.5 to 1 | 2 to 4 | 0.5 to 1 | 2 to 4 | < 30 | 2 to 4 | – | – | – | – |
| CCOC(=O)c1cccc2c1OB(O)[C@@H](NC(=O)C(NC(=O)N1CCN(CC)C(=O)C1=O)c1ncc(O)cc1F)C2 (stereo partly drawn) [Example 195, Ethyl (3R)-3-(2-(4-ethyl-2,3-dioxopiperazine-1-carboxamido)-2-(3-fluoro-5-hydroxypyridin-2-yl)acetamido)-2-hydroxy-3,4-dihydro-2H-benzo[e][1,2]oxaborinine-8-carboxylate] | – | > 128 | > 128 | 32 to 64 | > 128 | > 128 | > 128 | > 128 | > 500 | > 128 | – | – | – | – |
| CCN1CCN(C(=O)NC(C(=O)N[C@H]2Cc3cccc(C(=O)O)c3OB2O)c2ccc(OCCCN)cc2F)C(=O)C1=O (stereo partly drawn) [Example 209, (3R)-3-(2-(4-(3-aminopropoxy)-2-fluorophenyl)-2-(4-ethyl-2,3-dioxopiperazine-1-carboxamido)acetamido)-2-hydroxy-3,4-dihydro-2H-benzo[e][1,2]oxaborinine-8-carboxylic acid] | – | 8 to 16 | 32 to 64 | < 0.25 | 0.5 to 1 | > 128 | 32 to 64 | 2 to 4 | – | > 128 | 30 to 500 | – | – | – |
| O=C(O)c1cccc2c1OB(O)[C@@H](NC(=O)C(NC(=O)c1c[nH]ccc1=O)c1ncc(O)cc1F)C2 (stereo partly drawn) [Example 219, (3R)-3-(2-(3-fluoro-5-hydroxypyridin-2-yl)-2-(4-oxo-1,4-dihydropyridine-3-carboxamido)acetamido)-2-hydroxy-3,4-dihydro-2H-benzo[e][1,2]oxaborinine-8-carboxylic acid] | – | – | > 128 | 2 to 4 | 8 to 16 | 32 to 64 | 32 to 64 | 8 to 16 | – | > 128 | < 30 | > 128 | – | – |
| NCCN1CCN(C(=O)N[C@H](C(=O)N[C@H]2Cc3cccc(C(=O)O)c3OB2O)c2ccc(O)c(O)c2Cl)C(=O)C1=O [Example 221, (R)-3-((S)-2-(4-(2-aminoethyl)-2,3-dioxopiperazine-1-carboxamido)-2-(2-chloro-3,4-dihydroxyphenyl)acetamido)-2-hydroxy-3,4-dihydro-2H-benzo[e][1,2]oxaborinine-8-carboxylic acid] | – | > 128 | 8 to 16 | 8 to 16 | 8 to 16 | 32 to 64 | 8 to 16 | 8 to 16 | – | 32 to 64 | 30 to 500 | – | – | – |
| NCCN1CCN(C(=O)N[C@H](C(=O)N[C@H]2Cc3cccc(C(=O)O)c3OB2O)c2ncc(O)cc2F)C(=O)C1=O [Example 226, (R)-3-((S)-2-(4-(2-aminoethyl)-2,3-dioxopiperazine-1-carboxamido)-2-(3-fluoro-5-hydroxypyridin-2-yl)acetamido)-2-hydroxy-3,4-dihydro-2H-benzo[e][1,2]oxaborinine-8-carboxylic acid] | – | > 128 | 32 to 64 | 2 to 4 | 8 to 16 | > 128 | 32 to 64 | 8 to 16 | – | > 128 | 30 to 500 | – | – | – |
| CC(C)(O/N=C(\C(=O)N[C@@H]1C(=O)N2C(C(=O)[O-])=C(C[n+]3ccccc3)CS[C@H]12)c1csc(N)n1)C(=O)O [ceftazidime, reference compound] | – | – | – | – | – | – | – | – | – | – | – | – | weaker MICs in the CTX-M15 producer | D (D represents an MIC from 8 to 16 μg/mL) |
